The source of these data is the supplement of paper PMC3068080.

Series [1] relates to TGFBR2 mRNA. The series can be described thus: remaining TGFBR2 mRNA relative to control siRNA (off-target knock-down) (fraction of control); quantification method: branched DNA; higher = less knock-down. On the procedure:
(§1)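 Screen-hit siRNA duplexes (19-mer plus 3' dTdT overhang) were transiently transfected into HaCaT cells in 12-well plates. After 48 h, TGFBR1 and TGFBR2 mRNA were quantified by branched DNA assay (QuantiGene, normalised to HPRT1) or by SYBR qPCR (normalised to HPRT1/SMAD4). Values are the remaining mRNA relative to control-siRNA-transfected cells; 1-2 biological replicates.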

The subject of series [2] is TGFBR1 mRNA. Nature of the series: remaining TGFBR1 mRNA relative to control siRNA (off-target knock-down) (fraction of control); quantification method: branched DNA; higher = less knock-down. On the procedure: as §1

AAAAACCCUUUCCUGGGGCTT: the “remaining TGFBR2 mRNA” value in series [1] was 0.21. Also, the “remaining TGFBR1 mRNA” value in series [2] turned out to be 0.36.

In the case of AAAAGGCCUUCAAGCUGUUTT, the “remaining TGFBR2 mRNA” value in series [1] turned out to be 0.41. The “remaining TGFBR1 mRNA” value in series [2] stood at 0.56.

Consider AAAUGCUCCACCUCUCGGGTT, for which the “remaining TGFBR2 mRNA” value in series [1] is 0.28. In addition, the “remaining TGFBR1 mRNA” value in series [2] came out at 0.37.

AACAUAGCCUCAUACAAGGTT: the “remaining TGFBR2 mRNA” value in series [1] is 0.25. For the same sequence, in series [2], the “remaining TGFBR1 mRNA” value amounted to 0.7.

Consider AAGUCUGACUCGGUAAGUATT, for which the “remaining TGFBR2 mRNA” value in series [1] amounted to 0.72. Moreover, in series [2], the “remaining TGFBR1 mRNA” value is 0.87.

Take AAGUGCAUUCCGUGCAAUCTT: in series [1], the “remaining TGFBR2 mRNA” value was found to be 0.59. The “remaining TGFBR1 mRNA” value in series [2] stood at 0.92.

For AAUCAGGGCGGAGUAGGUGTT, the “remaining TGFBR2 mRNA” value in series [1] was found to be 0.91. In series [2], the “remaining TGFBR1 mRNA” value worked out at 1.21.

In the case of AAUCCUCUGGUGACUGCUGTT, the “remaining TGFBR2 mRNA” value in series [1] worked out at 0.54. The “remaining TGFBR1 mRNA” value in series [2] is 1.13.

Regarding AAUGCUGUUGGCAGCCAGATT, the “remaining TGFBR2 mRNA” value in series [1] came out at 0.11. For the same sequence, in series [2], the “remaining TGFBR1 mRNA” value was 0.71.

With AAUGGGAGACAAGCCAAUUTT, the “remaining TGFBR2 mRNA” value in series [1] is 0.25. In addition, the “remaining TGFBR1 mRNA” value in series [2] is 0.77.

Regarding AAUUGGCUCCACAGUCUUUTT, in series [1], the “remaining TGFBR2 mRNA” value was determined as 0.44. The “remaining TGFBR1 mRNA” value in series [2] worked out at 1.23.

On to ACAGCCUCGAACACUGACATT, for which the “remaining TGFBR2 mRNA” value in series [1] was 0.58. Further, in series [2], the “remaining TGFBR1 mRNA” value was 1.04.

For ACCAUGUCGGCCUUUUCAATT, the “remaining TGFBR2 mRNA” value in series [1] was 0.5. Further, the “remaining TGFBR1 mRNA” value in series [2] stood at 0.35.

As for ACCUUACCUUGUCGACGAATT, the “remaining TGFBR2 mRNA” value in series [1] turned out to be 0.56. In addition, the “remaining TGFBR1 mRNA” value in series [2] worked out at 0.7.

Take ACUGGAUCAGUCGCAGAAUTT: in series [1], the “remaining TGFBR2 mRNA” value is 0.38. In series [2], the “remaining TGFBR1 mRNA” value was 1.15.

ACUUUGGACAUGACCGGCUTT: in series [1], the “remaining TGFBR2 mRNA” value amounted to 0.51. Further, the “remaining TGFBR1 mRNA” value in series [2] turned out to be 1.2.

Consider ACUUUGGUUUCGGUGCAGCTT, for which the “remaining TGFBR2 mRNA” value in series [1] was determined as 0.23. Also, the “remaining TGFBR1 mRNA” value in series [2] was 0.63.

In the case of AGAAGUGUGACACGGGUCUTT, in series [1], the “remaining TGFBR2 mRNA” value was 0.15. The “remaining TGFBR1 mRNA” value in series [2] was 0.93.

Turning to AGACUACUGUGGCCAGUAATT, in series [1], the “remaining TGFBR2 mRNA” value is 1.1. In addition, the “remaining TGFBR1 mRNA” value in series [2] was found to be 1.22.

Consider AGACUGCAAAUAUUCCUGATT, for which, in series [1], the “remaining TGFBR2 mRNA” value turned out to be 0.49. Further, in series [2], the “remaining TGFBR1 mRNA” value was determined as 1.31.

As for AGAGAUUCCUUUUCUUCACTT, the “remaining TGFBR2 mRNA” value in series [1] came out at 0.79. Besides, the “remaining TGFBR1 mRNA” value in series [2] is 0.24.

Consider AGAUCACCGCGUAGACAACTT, for which the “remaining TGFBR2 mRNA” value in series [1] was found to be 0.65. Further, in series [2], the “remaining TGFBR1 mRNA” value worked out at 1.01.

Regarding AGAUCCAGGAUUACGCCAGTT, the “remaining TGFBR2 mRNA” value in series [1] stood at 0.72. Further, the “remaining TGFBR1 mRNA” value in series [2] came out at 0.88.

As for AGCACUGCGAGUACUGUGUTT, in series [1], the “remaining TGFBR2 mRNA” value is 1.08. Moreover, the “remaining TGFBR1 mRNA” value in series [2] came to 0.33.

As to AGCCAGAAACUCAGACACCTT, the “remaining TGFBR2 mRNA” value in series [1] came to 0.67. Also, in series [2], the “remaining TGFBR1 mRNA” value was 0.99.

As for AGCCCAUGCCCUUCACAAUTT, the “remaining TGFBR2 mRNA” value in series [1] is 0.89. Further, the “remaining TGFBR1 mRNA” value in series [2] was determined as 0.71.

AGCCUCUGGAGAAUCUCCUTT: the “remaining TGFBR2 mRNA” value in series [1] stood at 0.6. Also, the “remaining TGFBR1 mRNA” value in series [2] is 1.04.

As to AGCGGUGCGUUUCAGGCUGTT, the “remaining TGFBR2 mRNA” value in series [1] came out at 0.7. Besides, in series [2], the “remaining TGFBR1 mRNA” value was found to be 1.06.

For AGCGUCCUGAAGACUGGAUTT, the “remaining TGFBR2 mRNA” value in series [1] was 1.03. For the same sequence, the “remaining TGFBR1 mRNA” value in series [2] was 0.27.

AGCUUAUCCAACAGACGUCTT: the “remaining TGFBR2 mRNA” value in series [1] is 0.29. The “remaining TGFBR1 mRNA” value in series [2] worked out at 1.07.

As to AGCUUGUGCCAAGUGCCAUTT, the “remaining TGFBR2 mRNA” value in series [1] stood at 0.33. Moreover, the “remaining TGFBR1 mRNA” value in series [2] came out at 0.92.

On to AGGCAACAGGGAUGAGAUGTT, for which the “remaining TGFBR2 mRNA” value in series [1] came to 0.2. Also, the “remaining TGFBR1 mRNA” value in series [2] came to 0.93.

As for AGGCUAUAAGCUCGCCUACTT, the “remaining TGFBR2 mRNA” value in series [1] worked out at 0.25. In series [2], the “remaining TGFBR1 mRNA” value came out at 0.84.
